Entries after “also recorded” stand apart in the source; their conditions may differ.
Columns and labels:
[1] = Solubility in PET tested medium; type: physicochemical; settings: PET assay medium, phosphate buffer pH 7.2, DMSO up to 4%
Description: Chloroplasts were prepared from spinach (Spinacia oleracea L.) according to Masarovicova and Kralova. The inhibition of photosynthetic electron transport (PET) in isolated spinach chloroplasts was determined spectrophotometrically (Genesys 6, Thermo Scientific, USA), using an artificial electron acceptor 2,6-dichlorophenol-indophenol (DCIPP) according to Kralova et al., and the rate of photosynthetic electron transport was monitored as a photoreduction of DCPIP. The measurements were carried out in phosphate buffer (0.02 mol/L, pH 7.2) containing sucrose (0.4 mol/L), MgCl2 (0.005 mol/L) and NaCl (0.015 mol/L). The chlorophyll content was 30 mg/L in these experiments and the samples were irradiated (~100 W/m^2 with 10 cm distance) with a halogen lamp (250 W) using a 4 cm water filter to prevent warming of the samples (suspension temperature 22 °C). The studied compounds were dissolved in DMSO due to their limited water solubility. […] The inhibitory efficiency of the studied compounds was expressed by IC50 values, i.e., by molar concentration of the compounds causing 50% decrease in the oxygen evolution rate relative to the untreated control.

[2] = system: human monocytic leukemia THP-1 cell line; assay: In vitro cytotoxicity assay (LDH)
Description: Human monocytic leukemia THP-1 cells were obtained from the European Collection of Cell Cultures (ECACC, Salisbury, UK; Methods of characterization: DNA Fingerprinting (Multilocus probes) and isoenzyme analysis). These cells were routinely cultured in RPMI 1640 (Lonza, Verviers, Belgium) medium supplemented with 10% fetal bovine serum (FBS, Sigma-Aldrich, St. Louis, MO, USA), 2% L-glutamine, 1% penicillin and streptomycin (Lonza) at 37 °C with 5% CO2. Cells were passaged at approximately one-week intervals. Cells were routinely tested for the absence of mycoplasma (Hoechst 33258 staining method). The tested compounds were dissolved in DMSO (Sigma-Aldrich) and added in five increasing concentrations to the cell suspension in the culture medium. The maximum concentration of DMSO in the assays never exceeded 0.1%. Subsequently, the cells were incubated for 24 h at 37 °C with 5% CO2 to various compound concentrations ranging from […] in RPMI 1640 medium. Cell toxicity was determined using a Cytotoxicity Detection Kit^PLUS Lactate dehydrogenase (LDH) assay kit (Roche Diagnostics, Mannheim, Germany) according to the manufacturer’s instructions, as described previously. For LDH assays, cells were seeded into 96-well plates (5 × 10^4 cells/well in 100 μL culture medium) in triplicate in serum-free RPMI 1640 medium, and measurements at 492 nm wavelength (Synergy 2 Multi-Mode Microplate Reader, BioTek, Winooski, VT, USA) were taken 24 h after the treatment with tested compounds. The median lethal dose values, LD50, were deduced through the production of a dose-response curve. All data were evaluated using GraphPad Prism 5.00 software (GraphPad Software, San Diego, CA, USA).
LDH Test Principle: The LDH activity is determined by a coupled enzymatic reaction, whereby the tetrazolium salt INT is reduced to formazan. An increase in the amount of dead or plasma membrane damaged cells results in an increase of LDH enzyme activity in the culture supernatant. This increase in the amount of enzyme activity in the supernatant directly correlates to the amount of formazan formed during a limited time period.

Cc1ccc(NC(=O)c2cccc3ccccc23)cc1 [Compound 3c, N-(4-Methylphenyl)naphthalene-1-carboxamide]
solubility in tested medium (PET experiments) [1]: limited solubility | LD50 ([2]; human, 24 h): >30 µmol/L | lethal effect / toxicity on THP-1 cells ([2]; treatment with 30 μmol/L): did not lead to significant lethal effect; also recorded: insignificant toxicity
